Data published in patent EP2303842B1, “A process for producing lercanidipine.HCl form V” (Recordati Ireland Limited, priority 2008, dated 2010).
Structures can show the parent of a compound that is named as a salt.

Assay: Solubility determination in water, HCl 0.1 M and organic solvents (shaken suspensions, HPLC assay of the supernatant)
Type: physicochemical
Conditions: 25°C, shaken 24h, 1440 min
Protocol: For this purpose, solubility determination at RT of FI, FII and FV in water, HCl 0.1 M and some organic solvents has been carried out as described in the experimental section.
Suspensions in different solvents, ranging in concentration from 20 mg/mL to 400 mg/mL, depending on the solubility, were shaken with thermomixer at 25°C, […] for 24h. An aliquot was taken, centrifuged for 5 minutes at 13000 rpm, the supernatant was transferred in HPLC vials, opportunely diluted and assayed. For aqueous solvent the supernatant was further filtered with a 0.2 µm PVDF filter and centrifuged for 5 minutes at 8000 rpm.
Solubility data (mg/mL) obtained are gathered in Table 2. Table 2: solubility
HPLC-DAD: HP 1050 separation module controlled by HP Chem-station. Method:
Standard and calibration: automatic three point calibration (0.5 mg/mL, 1.0 mg/mL, 1.5 mg/mL), including the zero, using HP Chem-station program.

[1] = solvent H2O, supernatant filtered 0.2 µm PVDF
[2] = solvent HCl 0.1M, supernatant filtered 0.2 µm PVDF

Row | Solubility (solvent ACN) [µg/mL] | Solubility (solvent EtOH) [µg/mL] | Solubility [1] [µg/mL] | Solubility [2] [µg/mL] | Solubility (solvent MeOH) [µg/mL] | Solubility (solvent acetone) [µg/mL] | Compound
1 | 26100 | 46720 | 960 | 70 | 221900 | 18500 | COC(=O)C1=C(C)NC(C)=C(C(=O)OC(C)(C)CN(C)CCC(c2ccccc2)c2ccccc2)C1c1cccc([N+](=O)[O-])c1 (single isomer, unassigned) [FV, Lercanidipine.HCl Form V]
2 | 4800 | 10500 | 300 | 9 | 83900 | 2700 | COC(=O)C1=C(C)NC(C)=C(C(=O)OC(C)(C)CN(C)CCC(c2ccccc2)c2ccccc2)C1c1cccc([N+](=O)[O-])c1 (single isomer, unassigned) [FII, Lercanidipine.HCl Form II]
3 | 13800 | 28200 | 1600 | 200 | 263900 | 9400 | COC(=O)C1=C(C)NC(C)=C(C(=O)OC(C)(C)CN(C)CCC(c2ccccc2)c2ccccc2)C1c1cccc([N+](=O)[O-])c1 (single isomer, unassigned) [FI, Lercanidipine.HCl Form I]
